Results from PubChem BioAssay (NCI).
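Grown in 96-well plates, cells were treated for 48 hours with each compound at five concentrations. Insufficient inhibition: endpoint recorded as highest concentration tested. TGI denotes the concentration required for complete inhibition of growth.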

Columns and labels:
Assay in all cases: NCI anticancer screen, dose series, 48 h
786-0 renal = system: 786-0 renal
A498 renal = system: A498 renal
A549 NSCLC = system: A549 NSCLC
ACHN renal = system: ACHN renal
CAKI-1 renal = system: CAKI-1 renal
CCRF-CEM leukemia = system: CCRF-CEM leukemia
COLO 205 colon = system: COLO 205 colon
DMS 114 small cell lung = system: DMS 114 small cell lung
DMS 273 small cell lung = system: DMS 273 small cell lung
EKVX NSCLC = system: EKVX NSCLC
HCC-2998 colon = system: HCC-2998 colon
HCT-116 colon = system: HCT-116 colon
HCT-15 colon = system: HCT-15 colon
HL-60(TB) leukemia = system: HL-60(TB) leukemia
HOP-62 NSCLC = system: HOP-62 NSCLC
HT29 colon = system: HT29 colon
IGROV1 ovarian = system: IGROV1 ovarian
K-562 leukemia = system: K-562 leukemia
KM12 colon = system: KM12 colon
KM20L2 colon = system: KM20L2 colon
LOX IMVI melanoma = system: LOX IMVI melanoma
M14 melanoma = system: M14 melanoma
M19-MEL melanoma = system: M19-MEL melanoma
MALME-3M melanoma = system: MALME-3M melanoma
MOLT-4 leukemia = system: MOLT-4 leukemia
NCI-H226 lung = system: NCI-H226 lung
NCI-H23 lung = system: NCI-H23 lung
NCI-H460 lung = system: NCI-H460 lung
NCI-H522 lung = system: NCI-H522 lung
OVCAR-3 ovarian = system: OVCAR-3 ovarian
OVCAR-4 ovarian = system: OVCAR-4 ovarian
OVCAR-5 ovarian = system: OVCAR-5 ovarian
OVCAR-8 ovarian = system: OVCAR-8 ovarian
RPMI-8226 leukemia = system: RPMI-8226 leukemia
RXF 393 renal = system: RXF 393 renal
SF-268 CNS = system: SF-268 CNS
SF-295 CNS = system: SF-295 CNS
SF-539 CNS = system: SF-539 CNS
SK-MEL-2 melanoma = system: SK-MEL-2 melanoma
SK-MEL-28 melanoma = system: SK-MEL-28 melanoma
SK-OV-3 ovarian = system: SK-OV-3 ovarian
SN12C renal = system: SN12C renal
SNB-19 CNS = system: SNB-19 CNS
SNB-78 CNS = system: SNB-78 CNS
SR leukemia = system: SR leukemia
SW-620 colon = system: SW-620 colon
TK-10 renal = system: TK-10 renal
U251 CNS = system: U251 CNS
UACC-257 melanoma = system: UACC-257 melanoma
UACC-62 melanoma = system: UACC-62 melanoma
UO-31 renal = system: UO-31 renal
LXFL 529 NSCLC = system: LXFL 529 NSCLC

CN(C)c1ccc(C=NC23CC4CC(CC(C4)C2)C3)cc1 showed a TGI (786-0 renal) greater than 100 µM, a TGI (A498 renal) greater than 100 µM and a TGI (A549 NSCLC) greater than 100 µM. The TGI (ACHN renal) was greater than 100 µM, the TGI (CAKI-1 renal) was greater than 100 µM and the TGI (CCRF-CEM leukemia) was greater than 100 µM. It also gave a TGI (COLO 205 colon) greater than 100 µM, a TGI (DMS 114 small cell lung) greater than 100 µM and a TGI (DMS 273 small cell lung) greater than 100 µM. For the same compound, the TGI (EKVX NSCLC) was greater than 100 µM, the TGI (HCC-2998 colon) was greater than 100 µM and the TGI (HCT-116 colon) was greater than 100 µM. It also gave a TGI (HCT-15 colon) greater than 100 µM, a TGI (HL-60(TB) leukemia) greater than 100 µM and a TGI (HOP-62 NSCLC) greater than 100 µM. For the same compound, the TGI (HT29 colon) was greater than 100 µM, the TGI (IGROV1 ovarian) was greater than 100 µM and the TGI (K-562 leukemia) was greater than 100 µM. It also gave a TGI (KM12 colon) greater than 100 µM, a TGI (KM20L2 colon) greater than 100 µM and a TGI (LOX IMVI melanoma) greater than 100 µM. The TGI (M14 melanoma) was greater than 100 µM, the TGI (M19-MEL melanoma) was greater than 100 µM and the TGI (MALME-3M melanoma) was greater than 100 µM. It also gave a TGI (MOLT-4 leukemia) greater than 100 µM, a TGI (NCI-H226 lung) greater than 100 µM and a TGI (NCI-H23 lung) greater than 100 µM. It also gave a TGI (NCI-H460 lung) greater than 100 µM, a TGI (NCI-H522 lung) greater than 100 µM and a TGI (OVCAR-3 ovarian) greater than 100 µM. It also gave a TGI (OVCAR-4 ovarian) greater than 100 µM, a TGI (OVCAR-5 ovarian) greater than 100 µM and a TGI (OVCAR-8 ovarian) greater than 100 µM. It also gave a TGI (RPMI-8226 leukemia) greater than 100 µM, a TGI (RXF 393 renal) greater than 100 µM and a TGI (SF-268 CNS) greater than 100 µM. For the same compound, the TGI (SF-295 CNS) was greater than 100 µM, the TGI (SF-539 CNS) was greater than 100 µM and the TGI (SK-MEL-2 melanoma) was greater than 100 µM. It also gave a TGI (SK-MEL-28 melanoma) greater than 100 µM, a TGI (SK-OV-3 ovarian) greater than 100 µM and a TGI (SN12C renal) greater than 100 µM. The TGI (SNB-19 CNS) was greater than 100 µM, the TGI (SNB-78 CNS) was greater than 100 µM and the TGI (SR leukemia) was greater than 100 µM. For the same compound, the TGI (SW-620 colon) was greater than 100 µM, the TGI (TK-10 renal) was greater than 100 µM and the TGI (U251 CNS) was greater than 100 µM. For the same compound, the TGI (UACC-257 melanoma) was greater than 100 µM, the TGI (UACC-62 melanoma) was greater than 100 µM and the TGI (UO-31 renal) was greater than 100 µM.

Compound CC(SC(=S)Nc1cccc(F)c1)C(=O)O (stereo not drawn) has a TGI (786-0 renal) greater than 100 µM, a TGI (A498 renal) of 77 µM and a TGI (A549 NSCLC) greater than 100 µM. The TGI (ACHN renal) was greater than 100 µM, the TGI (CAKI-1 renal) was greater than 100 µM and the TGI (CCRF-CEM leukemia) was 55.3 µM. The TGI (DMS 114 small cell lung) was 31.7 µM, the TGI (DMS 273 small cell lung) was 24.5 µM and the TGI (EKVX NSCLC) was greater than 100 µM. For the same compound, the TGI (HCC-2998 colon) was greater than 100 µM, the TGI (HCT-116 colon) was 37.6 µM and the TGI (HCT-15 colon) was 83.7 µM. The TGI (HL-60(TB) leukemia) was 29.4 µM, the TGI (HOP-62 NSCLC) was 59.6 µM and the TGI (HT29 colon) was greater than 100 µM. The TGI (IGROV1 ovarian) was 11 µM, the TGI (K-562 leukemia) was 38.9 µM and the TGI (KM20L2 colon) was 90.8 µM. The TGI (LOX IMVI melanoma) was 32.4 µM, the TGI (LXFL 529 NSCLC) was 69.1 µM and the TGI (M14 melanoma) was 35 µM. For the same compound, the TGI (MOLT-4 leukemia) was 46.5 µM, the TGI (NCI-H226 lung) was 44.3 µM and the TGI (NCI-H23 lung) was 52.3 µM. For the same compound, the TGI (NCI-H460 lung) was 68 µM, the TGI (NCI-H522 lung) was 34.9 µM and the TGI (OVCAR-3 ovarian) was greater than 100 µM. It also gave a TGI (OVCAR-4 ovarian) greater than 100 µM, a TGI (OVCAR-5 ovarian) greater than 100 µM and a TGI (OVCAR-8 ovarian) of 76 µM. The TGI (RPMI-8226 leukemia) was 34.3 µM, the TGI (RXF 393 renal) was 29.1 µM and the TGI (SF-268 CNS) was 32.6 µM. For the same compound, the TGI (SF-295 CNS) was 52.7 µM, the TGI (SF-539 CNS) was 38 µM and the TGI (SK-MEL-2 melanoma) was 46.5 µM. For the same compound, the TGI (SK-MEL-28 melanoma) was 32.1 µM, the TGI (SN12C renal) was greater than 100 µM and the TGI (SNB-19 CNS) was 99.6 µM. It also gave a TGI (SNB-78 CNS) greater than 100 µM, a TGI (SR leukemia) of 30.8 µM and a TGI (SW-620 colon) greater than 100 µM. The TGI (TK-10 renal) was greater than 100 µM, the TGI (U251 CNS) was 84.9 µM and the TGI (UACC-257 melanoma) was 33.5 µM. It also gave a TGI (UACC-62 melanoma) of 36.4 µM and a TGI (UO-31 renal) of 74.5 µM.
